Consider two compounds from publication PMC12491518, “Fabrication of cytotoxic mirror image nanopores” (Nature Communications, 2025).

Each structure is given as a SMILES string. Where a SMILES comes first, the peptide text is derived from it. [ ]: non-standard residue; d: D form.

The target of series [1] is proteinase K (Parengyodontium album, UniProt P06873). As to the kind of experiment: Proteinase K enzyme activity on peptides (SDS-PAGE). The format is in vitro ADME. The note with it: 0.5 mg/ml proteinase K, 63°C, 30 min, 10 mM phosphate buffer with 0.1% DDM pH 7.4; SDS-PAGE and bilayer insertion. The procedure: applied through Ag/AgCl electrodes with agarose salt bridges. The pore formation in the […]
The 'reverse potential' (Vm) was calculated using the Goldman-Hodgkin-Katz equation1. […]
In this equation, R is the universal gas constant (8.314 J.K-1.mol-1), T is the temperature in Kelvin (K = °C + 273.15), F is Faraday's constant (96485 C.mol-1), PK+ is the membrane permeability for K+, PCl- is the relative membrane permeability for Cl-, [K+]cis is the concentration of K+ in the cis side, [K+]trans is the concentration of K+ in the trans side, [Cl-]cis is the concentration of Cl- in the cis side and [Cl-]trans is the concentration of Cl- in the trans side.
The reverse potential for DpPorA and DpPorA DE was calculated to be +21 mV and +40 mV, […]
c) Proteinase K enzyme activity on DpPorA and DpPorA DE pores
DpPorA peptides were prepared in 10 mM phosphate buffer with 0.1% DDM (pH 7.4). A final concentration of 0.5 mg/ml of freshly prepared proteinase K solution was added to the samples.
The reaction mixtures were heated at 63°C for 30 min. The proteolysis was terminated by adding 2 mM PMSF (phenylmethyl sulfonyl fluoride).2 The reaction products were loaded on a Mini-PROTEAN® TGX™ precast gel (Bio-Rad) with Protein Standard Marker (Bio-Rad) […]

Series [2] can be described thus: Ion selectivity measurement under asymmetric KCl (reverse potential, Goldman-Hodgkin-Katz). The format is biochemical. The note with it: 0.15 M KCl cis / 1 M KCl trans. The method, then:
High-resolution electrical recordings for the single-channel characterization were conducted in planar lipid bilayers made up of 1,2-diphytanoyl-sn-glycero-3-phosphocholine (DPhPC, Avanti Polar Lipids)[23],[27],[51]. The lipid bilayer is formed across a polytetrafluoroethylene (Teflon) aperture of ~100 µm in diameter. Teflon is placed between the two sides of the Delrin bilayer chamber, partitioning it into cis and trans compartments (600 µL each). For constructing a solvent-free lipid bilayer, the aperture is made lipophilic by pre-painting both sides with hexadecane in n-pentane (1 μL, 5 mg mL^−1)[51]. After ~10 min, the chambers were filled with buffered electrolytes (1 M KCl, 10 mM HEPES, pH 7.4), and DPhPC in n-pentane (1 μL, 5 mg mL^−1) was added. After ~15 min incubation, the lipid bilayer is formed by raising and lowering the electrolyte solution, bringing the two lipid monolayers together at the aperture. […] Ion selectivity was assessed under asymmetric salt conditions with a KCl concentration gradient across the planar lipid bilayer (0.15 M cis/1 M trans) (SI text)[27]. The ion current was acquired and amplified using an Axopatch 200B amplifier, digitized with Digidata 1550B digitizer, and recorded using the pClamp 11 acquisition software (Molecular Devices, CA). […]

Sequence of proteinase K (P06873 106-384, species assumed): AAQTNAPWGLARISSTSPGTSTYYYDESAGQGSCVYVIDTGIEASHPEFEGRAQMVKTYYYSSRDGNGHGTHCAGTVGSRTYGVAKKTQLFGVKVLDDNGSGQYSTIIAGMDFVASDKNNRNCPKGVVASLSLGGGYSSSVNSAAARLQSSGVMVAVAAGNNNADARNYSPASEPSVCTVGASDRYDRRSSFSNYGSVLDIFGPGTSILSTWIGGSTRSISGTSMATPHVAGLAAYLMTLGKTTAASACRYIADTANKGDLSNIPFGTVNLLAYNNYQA

For the compound `CC[C@@H](C)[C@@H](NC(=O)[C@H](N)CCSC)C(=O)N[C@H](CC(=O)O)C(=O)N[C@H](CCC(N)=O)C(=O)N[C@@H](C(=O)N[C@@H](C(=O)N[C@H](CCC(=O)O)C(=O)N[C@@H](C(=O)N[C@H](Cc1ccccc1)C(=O)NCC(=O)N[C@H](CCC(N)=O)C(=O)N[C@H](CC(C)C)C(=O)NCC(=O)N[C@@H](C(=O)N[C@H](Cc1ccccc1)C(=O)N[C@H](CC(C)C)C(=O)NCC(=O)NCC(=O)N[C@H](Cc1ccccc1)C(=O)NCC(=O)N[C@H](CC(N)=O)C(=O)N[C@@H](C(=O)N[C@H](Cc1ccccc1)C(=O)N[C@H](CCCCN)C(=O)NCC(=O)N[C@H](CC(C)C)C(=O)N[C@H](CCCCN)C(=O)N[C@H](C)C(=O)N[C@@H](C(=O)N[C@@H](C(=O)N[C@H](C)C(=O)N[C@@H](C(=O)N[C@@H](C(=O)N[C@@H](C(=O)N[C@H](CCCCN)C(=O)N[C@H](Cc1c[nH]c2ccccc12)C(=O)N[C@@H](C(=O)N[C@H](C)C(=O)N[C@H](C)C(=O)N[C@H](CCCCN)C(=O)O)[C@H](C)O)C(C)C)[C@H](C)CC)[C@H](C)O)[C@H](C)CC)C(C)C)[C@H](C)CC)[C@H](C)O)[C@H](C)CC)[C@H](C)O)[C@H](C)CC` [DpPorA DE] (H-[dM][dI][dD][dQ][dI][dT][dE][dI][dF]G[dQ][dL]G[dT][dF][dL]GG[dF]G[dN][dI][dF][dK]G[dL][dK][dA][dV][dI][dA][dT][dI][dV][dK][dW][dT][dA][dA][dK]-OH; N-terminus and C-terminus assumed), the “stability to proteinase K” value in series [1] is “protease-stable”. Also, the “reverse potential (Vm)” value in series [2] is recorded as “+40 mV”.
For `CC[C@@H](C)[C@@H](NC(=O)[C@H](N)CCSC)C(=O)N[C@H](CC(=O)O)C(=O)N[C@H](CCC(N)=O)C(=O)N[C@@H](C(=O)N[C@@H](C(=O)N[C@H](CCC(=O)O)C(=O)N[C@@H](C(=O)N[C@H](Cc1ccccc1)C(=O)NCC(=O)N[C@H](CCC(N)=O)C(=O)N[C@H](CC(C)C)C(=O)NCC(=O)N[C@@H](C(=O)N[C@H](Cc1ccccc1)C(=O)N[C@H](CC(C)C)C(=O)NCC(=O)NCC(=O)N[C@H](Cc1ccccc1)C(=O)NCC(=O)N[C@H](CC(N)=O)C(=O)N[C@@H](C(=O)N[C@H](Cc1ccccc1)C(=O)N[C@H](CCCCN)C(=O)NCC(=O)N[C@H](CC(C)C)C(=O)N[C@H](CCCCN)C(=O)N[C@H](CC(=O)O)C(=O)N[C@@H](C(=O)N[C@@H](C(=O)N[C@H](CCC(=O)O)C(=O)N[C@@H](C(=O)N[C@@H](C(=O)N[C@@H](C(=O)N[C@H](CCCCN)C(=O)N[C@H](Cc1c[nH]c2ccccc12)C(=O)N[C@@H](C(=O)N[C@H](C)C(=O)N[C@H](C)C(=O)N[C@H](CCCCN)C(=O)O)[C@H](C)O)C(C)C)[C@H](C)CC)[C@H](C)O)[C@H](C)CC)C(C)C)[C@H](C)CC)[C@H](C)O)[C@H](C)CC)[C@H](C)O)[C@H](C)CC` [DpPorA] (H-[dM][dI][dD][dQ][dI][dT][dE][dI][dF]G[dQ][dL]G[dT][dF][dL]GG[dF]G[dN][dI][dF][dK]G[dL][dK][dD][dV][dI][dE][dT][dI][dV][dK][dW][dT][dA][dA][dK]-OH; N-terminus and C-terminus assumed), the “stability to proteinase K” value in series [1] is given as “resistant to proteinase K action”. Also, the “reverse potential (Vm)” value in series [2] is listed as “+21 mV”.
